{"source": "patent US20200361871A1", "about": "(Enterprise Therapeutics Ltd., priority 2018, published 2020)", "target": "human TMEM16A (TMEM16Aabc variant) (Homo sapiens, UniProt Q5XXA6, DEL476-501, form not given)", "sequence (Q5XXA6 with tags, fused parts or gaps DEL476-501)": "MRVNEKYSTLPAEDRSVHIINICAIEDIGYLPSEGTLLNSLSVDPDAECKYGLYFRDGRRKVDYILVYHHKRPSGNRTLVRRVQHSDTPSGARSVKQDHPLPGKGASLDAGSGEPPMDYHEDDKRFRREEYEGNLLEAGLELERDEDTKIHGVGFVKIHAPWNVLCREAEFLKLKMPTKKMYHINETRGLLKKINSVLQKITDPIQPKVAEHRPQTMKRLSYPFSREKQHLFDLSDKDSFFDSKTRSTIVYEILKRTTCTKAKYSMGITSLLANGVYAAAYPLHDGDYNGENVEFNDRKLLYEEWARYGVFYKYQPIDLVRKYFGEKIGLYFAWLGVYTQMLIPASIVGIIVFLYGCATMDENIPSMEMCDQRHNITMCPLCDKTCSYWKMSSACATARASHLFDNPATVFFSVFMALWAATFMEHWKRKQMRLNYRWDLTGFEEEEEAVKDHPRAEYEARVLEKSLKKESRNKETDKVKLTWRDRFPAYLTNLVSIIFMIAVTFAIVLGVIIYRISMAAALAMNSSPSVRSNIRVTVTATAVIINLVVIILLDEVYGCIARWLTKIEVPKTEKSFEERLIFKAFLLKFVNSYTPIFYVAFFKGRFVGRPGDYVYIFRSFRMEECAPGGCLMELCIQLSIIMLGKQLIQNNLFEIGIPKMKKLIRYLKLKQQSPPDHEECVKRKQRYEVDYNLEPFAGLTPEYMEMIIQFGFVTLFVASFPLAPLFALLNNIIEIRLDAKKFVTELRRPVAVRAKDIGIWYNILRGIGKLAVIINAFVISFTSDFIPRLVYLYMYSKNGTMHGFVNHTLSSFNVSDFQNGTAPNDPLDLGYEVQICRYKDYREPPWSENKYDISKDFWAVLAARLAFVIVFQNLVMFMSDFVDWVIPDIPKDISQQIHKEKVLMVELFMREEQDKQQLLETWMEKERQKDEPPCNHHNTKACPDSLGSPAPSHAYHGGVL", "experiment": "Automated whole-cell patch clamp (Qpatch) TMEM16A potentiator assay in FRT cells stably expressing human TMEM16A", "format": "cell-based", "conditions": "for % Potentiation @ 3.33 μM Avg: 3.33 μM solution of test compound, percentage increase of baseline TMEM16A current; for EC50: calculated EC50, Qpatch TMEM16A current at +70 mV", "how_it_was_run": "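FRT cells stably expressing human TMEM16Aabc were recorded by automated whole-cell patch clamp, with intracellular Ca2+ buffered for ~EC20 activation, holding −70 mV and step to +70 mV at 0.05 Hz. Compound was applied cumulatively, 5 min per concentration. Peak current increase as % of baseline was fitted to give EC50 and maximum efficacy.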"}
{"smiles": "N#CC1(NC(=O)c2cc(NC(=O)Cc3cccc(Cl)c3)ccn2)CC1", "note": "[Example 23.1, 4-[[2-(3-Chlorophenyl)acetyl]amino]-N-(1-cyanocyclopropyl)pyridine-2-carboxamide]", "values": [{"measurement": "% Potentiation @ 3.33 μM Avg", "value": 150, "unit": "%"}]}
{"smiles": "N#CC1(NC(=O)c2cc(NC(=O)Cc3cc(F)ccc3Cl)ccn2)CC1", "note": "[Example 23.2, 4-[[2-(2-Chloro-5-fluoro-phenyl)acetyl]amino]-N-(1-cyanocyclopropyl)pyridine-2-carboxamide]", "values": [{"measurement": "% Potentiation @ 3.33 μM Avg", "value": 87, "unit": "%"}]}
{"smiles": "CC(C)(C)NC(=O)c1cc(NC(=O)C2Cc3ccccc3C2)ccn1", "note": "[Example 23.3, N-tert-Butyl-4-(indane-2-carbonylamino)pyridine-2-carboxamide]", "values": [{"measurement": "% Potentiation @ 3.33 μM Avg", "value": 59, "unit": "%"}, {"measurement": "EC50", "value": 470, "unit": "nM"}]}
{"smiles": "CC(C)(C)NC(=O)c1cc(NC(=O)Cc2ccccc2OC(F)F)ccn1", "note": "[Example 23.4, N-tert-Butyl-4-[[2-[2-(difluoromethoxy)phenyl]acetyl]amino]pyridine-2-carboxamide]", "values": [{"measurement": "% Potentiation @ 3.33 μM Avg", "value": 115, "unit": "%"}]}
{"smiles": "CC(C)(C)NC(=O)c1cc(NC(=O)Cc2ccccc2C(F)F)ccn1", "note": "[Example 23.5, N-tert-Butyl-4-[[2-[2-(difluoromethyl)phenyl]acetyl]amino]pyridine-2-carboxamide]", "values": [{"measurement": "% Potentiation @ 3.33 μM Avg", "value": 110, "unit": "%"}]}
{"smiles": "CC(C)(C)NC(=O)c1cc(NC(=O)Cc2ccc(F)c(F)c2)ccn1", "note": "[Example 23.6, N-tert-Butyl-4-[[2-(3,4-difluorophenyl)acetyl]amino]pyridine-2-carboxamide]", "values": [{"measurement": "% Potentiation @ 3.33 μM Avg", "value": 108, "unit": "%"}]}
{"smiles": "CC(C)(C)NC(=O)c1cc(NC(=O)Cc2cc(F)cc(F)c2)ccn1", "note": "[Example 23.7, N-tert-Butyl-4-[[2-(3,5-difluorophenyl)acetyl]amino]pyridine-2-carboxamide]", "values": [{"measurement": "% Potentiation @ 3.33 μM Avg", "value": 98, "unit": "%"}]}
{"smiles": "CC(C)(C)NC(=O)c1cc(NC(=O)Cc2cccc(F)c2F)ccn1", "note": "[Example 23.8, N-tert-Butyl-4-[[2-(2,3-difluorophenyl)acetyl]amino]pyridine-2-carboxamide]", "values": [{"measurement": "% Potentiation @ 3.33 μM Avg", "value": 122, "unit": "%"}]}
{"smiles": "O=C(Cc1ccccc1Cl)Nc1ccnc(C(=O)NC2CCOCC2)c1", "note": "[Example 23.9, 4-[[2-(2-Chlorophenyl)acetyl]amino]-N-tetrahydropyran-4-yl-pyridine-2-carboxamide]", "values": [{"measurement": "% Potentiation @ 3.33 μM Avg", "value": 47, "unit": "%"}]}
{"smiles": "N#CC1(NC(=O)c2cc(NC(=O)Cc3ccc4ncccc4c3)ccn2)CCC1", "note": "[Example 23.11, N-(1-Cyanocyclobutyl)-4-[[2-(6-quinolyl)acetyl]amino]pyridine-2-carboxamide]", "values": [{"measurement": "% Potentiation @ 3.33 μM Avg", "value": 101, "unit": "%"}]}
{"smiles": "CC(C)(C)NC(=O)c1cc(NC(=O)Cc2ccccc2C(F)(F)F)ccn1", "note": "[Example 23.12, N-tert-Butyl-4-[[2-[2-(trifluoromethyl)phenyl]acetyl]amino]pyridine-2-carboxamide]", "values": [{"measurement": "% Potentiation @ 3.33 μM Avg", "value": 197, "unit": "%"}, {"measurement": "EC50", "value": 330, "unit": "nM"}]}
{"smiles": "CC(C)(C)NC(=O)c1cc(NC(=O)Cc2ccccc2Br)ccn1", "note": "[Example 23.13, 4-[[2-(2-bromophenyl)acetyl]amino]-N-tert-butyl-pyridine-2-carboxamide]", "values": [{"measurement": "% Potentiation @ 3.33 μM Avg", "value": 169, "unit": "%"}, {"measurement": "EC50", "value": 570, "unit": "nM"}]}
{"smiles": "CC(C)(C)NC(=O)c1cc(NC(=O)Cc2ccccc2C#N)ccn1", "note": "[Example 23.14, N-tert-Butyl-4-[[2-(2-cyanophenyl)acetyl]amino]pyridine-2-carboxamide]", "values": [{"measurement": "% Potentiation @ 3.33 μM Avg", "value": 33, "unit": "%"}]}
{"smiles": "N#CC1(NC(=O)c2cc(NC(=O)Cc3ccccc3Cl)ccn2)CCOCC1", "note": "[Example 23.15, 4-[[2-(2-Chlorophenyl)acetyl]amino]-N-(4-cyanotetrahydropyran-4-yl)pyridine-2-carboxamide]", "values": [{"measurement": "% Potentiation @ 3.33 μM Avg", "value": 147, "unit": "%"}, {"measurement": "EC50", "value": 1190, "unit": "nM"}]}
{"smiles": "N#CC1(NC(=O)c2cc(NC(=O)Cc3ccc4ncccc4c3)ccn2)CCOCC1", "note": "[Example 23.16, N-(4-Cyanotetrahydropyran-4-yl)-4-[[2-(6-quinolyl)acetyl]amino]pyridine-2-carboxamide]", "values": [{"measurement": "% Potentiation @ 3.33 μM Avg", "value": 68, "unit": "%"}, {"measurement": "EC50", "value": 1400, "unit": "nM"}]}
{"smiles": "COc1ccc(Cl)c(CC(=O)Nc2ccnc(C(=O)NC3(C#N)CC3)c2)c1", "note": "[Example 24, 4-[[2-(2-Chloro-5-methoxy-phenyl)acetyl]amino]-N-(1-cyanocyclopropyl)pyridine-2-carboxamide]", "values": [{"measurement": "% Potentiation @ 3.33 μM Avg", "value": 68, "unit": "%"}]}
{"smiles": "CC(C)(C)c1ccc(O)c(CC(=O)Nc2ccnc(C(=O)NC34CC(C3)C4)c2)c1", "note": "[Example 25, N-(3-Bicyclo[1.1.1]pentanyl)-4-[[2-(5-tert-butyl-2-hydroxy-phenyl)acetyl]amino] pyridine-2-carboxamide]", "values": [{"measurement": "% Potentiation @ 3.33 μM Avg", "value": 330, "unit": "%"}, {"measurement": "EC50", "value": 370, "unit": "nM"}]}
{"smiles": "CC(C)(C)c1ccc(O)c(CC(=O)Nc2ccnc(C(=O)NC3(C#N)CCOCC3)c2)c1", "note": "[Example 25.1, 4-[[2-(5-tert-Butyl-2-hydroxy-phenyl)acetyl]amino]-N-(4-cyanotetrahydropyran-4-yl)pyridine-2-carboxamide]", "values": [{"measurement": "% Potentiation @ 3.33 μM Avg", "value": 393, "unit": "%"}, {"measurement": "EC50", "value": 140, "unit": "nM"}]}
{"smiles": "CC(C)(C)NC(=O)c1cc(NC(=O)Cc2cc(-c3ccccc3)ccc2O)ccn1", "note": "[Example 26, N-tert-Butyl-4-[[2-(2-hydroxy-5-phenyl-phenyl)acetyl]amino]pyridine-2-carboxamide]", "values": [{"measurement": "% Potentiation @ 3.33 μM Avg", "value": 108, "unit": "%"}]}
{"smiles": "CC(C)(C)NC(=O)c1cc(NC(=O)Cc2cc(Cl)c(CN3CCCC3)cc2O)ccn1", "note": "[Example 27, N-tert-Butyl-4-[[2-[5-chloro-2-hydroxy-4-(pyrrolidin-1-ylmethyl)phenyl]acetyl]amino]pyridine-2-carboxamide]", "values": [{"measurement": "% Potentiation @ 3.33 μM Avg", "value": 90, "unit": "%"}]}
{"smiles": "CC(C)(C)NCc1cc(O)c(CC(=O)Nc2ccnc(C(=O)NC(C)(C)C)c2)cc1Cl", "note": "[Example 27.1, N-tert-Butyl-4-[[2-[4-[(tert-butylamino)methyl]-5-chloro-2-hydroxy-phenyl]acetyl]amino]pyridine-2-carboxamide]", "values": [{"measurement": "% Potentiation @ 3.33 μM Avg", "value": 52, "unit": "%"}]}
{"smiles": "CC(C)(C)NC(=O)c1cc(NC(=O)Cc2cc(Cl)c(CN3CCOCC3)cc2O)ccn1", "note": "[Example 27.2, N-tert-Butyl-4-[[2-[5-chloro-2-hydroxy-4-(morpholinomethyl)phenyl]acetyl]amino]pyridine-2-carboxamide]", "values": [{"measurement": "% Potentiation @ 3.33 μM Avg", "value": 300, "unit": "%"}]}
{"smiles": "CC(C)(C)NC(=O)c1cc(NC(=O)Cc2cc(Cl)c(CN3CCC(F)(F)C3)cc2O)ccn1", "note": "[Example 27.3, N-tert-Butyl-4-[[2-[5-chloro-4-[(3,3-difluoropyrrolidin-1-yl)methyl]-2-hydroxy-phenyl]acetyl]amino]pyridine-2-carboxamide]", "values": [{"measurement": "% Potentiation @ 3.33 μM Avg", "value": 166, "unit": "%"}, {"measurement": "EC50", "value": 290, "unit": "nM"}]}
{"smiles": "CC(C)(C)NC(=O)c1cc(NC(=O)Cc2cc(Cl)ccc2O)c(F)cn1", "note": "[Example 28, N-tert-butyl-4-[[2-(5-chloro-2-hydroxy-phenyl)acetyl]amino]-5-fluoro-pyridine-2-carboxamide]", "values": [{"measurement": "% Potentiation @ 3.33 μM Avg", "value": 318, "unit": "%"}, {"measurement": "EC50", "value": 400, "unit": "nM"}]}
{"smiles": "CC(C)(C)NC(=O)c1nccc(NC(=O)Cc2cc(Cl)ccc2O)c1F", "note": "[Example 28.1, N-tert-Butyl-4-[[2-(5-chloro-2-hydroxy-phenyl)acetyl]amino]-3-fluoro-pyridine-2-carboxamide]", "values": [{"measurement": "% Potentiation @ 3.33 μM Avg", "value": 68, "unit": "%"}]}
{"smiles": "N#CC1(NC(=O)c2cc(NC(=O)Cc3ccccc3Cl)ccn2)CCC1", "note": "[Example 30, 4-[[2-(2-Chlorophenyl)acetyl]amino]-N-(1-cyanocyclobutyl)pyridine-2-carboxamide]", "values": [{"measurement": "% Potentiation @ 3.33 μM Avg", "value": 113, "unit": "%"}, {"measurement": "EC50", "value": 1220, "unit": "nM"}]}
{"smiles": "C#CC(C)(C)NC(=O)c1cc(NC(=O)Cc2ccccc2Cl)ccn1", "note": "[Example 30.1, 4-[[2-(2-Chlorophenyl)acetyl]amino]-N-(1,1-dimethylprop-2-ynyl)pyridine-2-carboxamide]", "values": [{"measurement": "% Potentiation @ 3.33 μM Avg", "value": 245, "unit": "%"}, {"measurement": "EC50", "value": 140, "unit": "nM"}]}
{"smiles": "O=C(Cc1ccccc1Cl)Nc1ccnc(C(=O)NC23CCC(F)(C2)C3)c1", "note": "[Example 30.2, 4-[[2-(2-Chlorophenyl)acetyl]amino]-N-(4-fluoro-1-bicyclo[2.1.1]hexanyl)pyridine-2-carboxamide]", "values": [{"measurement": "% Potentiation @ 3.33 μM Avg", "value": 221, "unit": "%"}, {"measurement": "EC50", "value": 180, "unit": "nM"}]}
{"smiles": "CC(C)(NC(=O)c1cc(NC(=O)Cc2ccccc2Cl)ccn1)C1CC1", "note": "[Example 30.3, 4-[[2-(2-Chlorophenyl)acetyl]amino]-N-(1-cyclopropyl-1-methyl-ethyl)pyridine-2-carboxamide]", "values": [{"measurement": "% Potentiation @ 3.33 μM Avg", "value": 100, "unit": "%"}, {"measurement": "EC50", "value": 250, "unit": "nM"}]}
{"smiles": "CC(C)(C#N)NC(=O)c1cc(NC(=O)Cc2ccccc2Cl)ccn1", "note": "[Example 30.3a, 4-[[2-(2-Chlorophenyl)acetyl]amino]-N-(1-cyano-1-methyl-ethyl)pyridine-2-carboxamide]", "values": [{"measurement": "% Potentiation @ 3.33 μM Avg", "value": 221, "unit": "%"}]}
{"smiles": "CC12CC(NC(=O)c3cc(NC(=O)Cc4ccccc4Cl)ccn3)(C1)C2", "note": "[Example 30.4, 4-[[2-(2-Chlorophenyl)acetyl]amino]-N-(1-methyl-3-bicyclo[1.1.1]pentanyl)pyridine-2-carboxamide]", "values": [{"measurement": "% Potentiation @ 3.33 μM Avg", "value": 95, "unit": "%"}, {"measurement": "EC50", "value": 750, "unit": "nM"}]}
{"smiles": "N#CC12CC(NC(=O)c3cc(NC(=O)Cc4ccccc4Cl)ccn3)(C1)C2", "note": "[Example 30.5, 4-[[2-(2-Chlorophenyl)acetyl]amino]-N-(1-cyano-3-bicyclo[1.1.1]pentanyl) pyridine-2-carboxamide]", "values": [{"measurement": "% Potentiation @ 3.33 μM Avg", "value": 63, "unit": "%"}]}
{"smiles": "O=C(Cc1ccccc1Cl)Nc1ccnc(C(=O)NC2CC2(F)F)c1", "note": "(centres unmarked) [Example 30.6, 4-[[2-(2-Chlorophenyl)acetyl]amino]-N-(2,2-difluorocyclopropyl)pyridine-2-carboxamide]", "values": [{"measurement": "% Potentiation @ 3.33 μM Avg", "value": 80, "unit": "%"}]}
